# Experimental data published in patent US10035780B2, “Quinazoline scaffold based compounds, pharmaceutical compositions and methods of use thereof” (TECHNION RESEARCH & DEVELOPMENT FOUNDATION LTD., priority 2014, dated 2018).
# Entries after “also recorded” stand apart in the source; their conditions may differ. Like-named read-outs stand apart in the source and are kept apart here.
# Columns and labels:
# TSPO = TSPO (Homo sapiens (Human), UniProt P30536); format: binding; details: displacement of [3H]PK 11195 from TSPO
# Sequence of TSPO (P30536 whole entry): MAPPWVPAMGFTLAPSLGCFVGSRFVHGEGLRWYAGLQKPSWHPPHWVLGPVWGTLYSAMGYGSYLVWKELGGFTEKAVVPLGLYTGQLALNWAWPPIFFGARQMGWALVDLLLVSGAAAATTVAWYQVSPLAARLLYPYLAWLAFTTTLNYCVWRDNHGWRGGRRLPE
# Procedure: Briefly, the assay utilizes radioactive standard ligand [^3H] PK 11195 (1-(2-chlorophenyl)-N-methyl-N-(1-methyl-propyl)-3 isoquinolinecarboxamide), and measures the ability of the compounds of the invention to displace standard ligand in binding to TSPO. Total radioactive binding was determined by measuring the radioactivity of the radioactive ligand-receptor complex, obtained in the reaction of radioactive standard with the TSPO. Radioactive standard and the examined compound were added to the TSPO and after some incubation time the radioactivity of the resulting ligand-receptor complexes was measured with the help of a […]. This radioactivity indicates the binding of the radioactive standard to TSPO. […] This can be expressed as the half maximal inhibitory concentration (IC50), which is a measure of the effectiveness of a compound in inhibiting biological or biochemical function, in this case inhibiting binding of standard radioactive ligand binding to the TSPO. A derivative of the IC50 is the Ki, which is the calculated binding affinity of the novel compound to the TSPO.
# Binding to TSPO was evaluated using a [^3H]PK 11195 radio-assay, as described above.
# U118MG cells [1] = assay: Collapse of the mitochondrial membrane potential (ΔΨm) induced by glutamate; format: cell-based, human; details: glutamate exposed cells
# Description: (§1) Techniques and parameters assayed are summarized here: Total protein levels (Bradford. Anal Biochem. 1976; 72:248-54); TSPO ligand binding assays (Kugler et al. 2008; Levin et al. 2005; Danovich et al. Eur Neuropsychopharmacol. 2008; 18:24-33) cell death, including apoptosis and necrosis and related molecular biological processes (Soustiel et al. Neuropathol Appl Neurobiol. 2008; 34:412-23; Soustiel et al. Exp Neurol. 2008; 214:201-8; Zeno et al. 2009); mitochondrial transmembrane potential collapse (Chelli et al. Biochem Pharmacol. 2004; 68:125-34; Kugler et al. 2008; Zeno et al., 2009; Shargorodsky et al. Apoptosis. 2012; 17:647-65), reactive oxygen species (ROS) generation as a measure of oxidative stress (Veenman et al. 2008; Zeno et al. 2009); TSPO knockdown (Levin et al. 2005; Zeno et al. 2009); expression levels of mitochondrial TSPO and associated proteins (Veenman et al. 2002; Levin et al. 2005; Veenman et al. 2008); gene expression with RT-PCR and microarray analysis (Bode et al. 2012; Veenman et al. 2012). Parameters of inflammation, immune response, migration, and the cell cycle are also tested. All these approaches can also be applied for quality control of the compounds.
# Compound 1 is very effective at a concentration of 25 μM in this model (in order to achieve the same effect with the classical TSPO ligand PK 11195 a concentration of 50 μM has to be applied (data not shown).
# U118MG cells [2] = assay: ROS generation at mitochondrial levels induced by glutamate (NAO dye); format: cell-based, human
# Description: as §1
# Next, the fluorescent dye 10-N-Nonyl-Acridine Orange (NAO) was applied to measure reactive oxygen species (ROS) generation at mitochondrial levels. […]
# R6-2 mice = format: in vivo; details: chronic s.c. treatment
# Description: R6-2 is a transgenic mouse model for Huntington Disease. Huntington Disease in humans is a hereditary neurodegenerative disease affecting motor performance and finally leading to death of the patients having the disease. R6-2 mice (˜120 CAG repeats B6CBA-Tg(HDexon1)62 Gpb/3J) mice were used for the experiments described below. For this purpose, mice obtained from the Jackson Laboratory (ME) were bred. In particular: males genotype: Hemizygous for Tg(HDexon1)62 Gpb, and females from the wildtype background strain B6CBAF1/J were bred according to the protocol of Jackson Laboratory. The male heterozygote offspring (R6-2 mice) were used for determining life span and motor activity, with and without drug treatment. Drug treatment consisted of daily (5 continuous days a week) subcutaneous injections of mice with 20 μl of: saline (sham control), vehicle DMSO (vehicle control), classic TSPO ligand PK 11195 (15 mg/kg), prior art Compound A (15 mg/kg), Compound 1 (15 mg/kg), and compound 1 (7.5 mg/kg). Drug treatment started on week 5 after birth. Quantities were used according to previous studies regarding TSPO ligands. […]
# FIG. 6. […] In particular, from week 9, when the first mice death occurred, until week 16, when all mice were dead, average distance covered in an open field, per session, per experimental group, per week was measured in cm. […]
# PC12 cells = assay: Differentiation of PC12 cells to neuron like cells, with glutamate; format: cell-based, rat; details: 5 days
# Procedure: Cell cultures of various human glial type cell lines (T98G, U87MG, A172, U118MG), as well as human neuronal type cell lines SH-SY 5Y and Be(2)-C were used to test the new compounds. In addition, the rat glioma cell line C6 was used. PC12 cells originating from rats were used as another cell line displaying neuronal characteristics. The applicants also have produced, by genetic manipulation, a modified rat C6 glial cell strain and a modified human U118MG glial type cell strain, both under-expressing the TSPO, which allows to study TSPO specific effects, including of the compounds of the invention, which can be done according to methods described previously (Weisinger et al. Biochemistry. 2004; 43:12315-21; Levin et al. 2005; Zeno et al., 2009).
# Briefly, PC-12 cells were exposed to Cpd 1, in combination with glutamate, basically as described for the cell cultures of Example 1, and remained under that condition for 5 days.
# Stability on storage = format: physicochemical; details: several months of storage
smiles,measurement,setting,value
"CCN(C)C(=O)Oc1nc(-c2ccccc2)nc2ccccc12 [Compound 1, 2-phenylquinazolin-4-yl ethyl(methyl)carbamate]",Ki,TSPO,~60 nM
same,concentration very effective in preventing ΔΨm collapse,U118MG cells [1],25 µM
same,prevention of ΔΨm collapse induced by glutamate,U118MG cells [1],prevents collapse
same,prevention of ΔΨm collapse induced by glutamate,U118MG cells [1]; listed as Cpd 1,prevented
same,ROS generation at mitochondrial levels induced by glutamate,U118MG cells [2],prevents ROS generation
same,ROS generation at mitochondrial levels induced by glutamate,U118MG cells [2]; listed as Cpd 1,attenuated
same,adverse effects,R6-2 mice,No adverse effects
same,differentiation of PC12 cells toward neuronal type cells,PC12 cells,able to transform PC-12 cells in cell culture to neuron like cells; also recorded: can induce differentiation
same,stability on storage,Stability on storage,stable over several months of storage
